In patent publication US20100298325A1, “PYRIDINE DERIVATIVES FOR THE TREATMENT OF AMYLOID-RELATED DISEASES” (SENEXIS LIMITED, priority 2007, published 2010):
Where two headings read alike, the source gives them in different places.

Assays:
Aβ(1-42) = target: T1, Aβ(1-42) (Homo sapiens, UniProt P05067); assay: Thioflavin-T fluorimetric assay of Aβ(1-42) aggregation; assay type: biochemical; conditions: 10 μM Aβ(1-42); thioflavin-T fluorescence; read-out: IC50 inhibiting 10 μM Aβ(1-42) aggregation
T1 construct: dissolving Aβ(1-42) HCl salt in hexafluoroisopropanol (HFIP)
Method: Aβ(1-42) was prepared for amyloid aggregation and toxicity assays by dissolving Aβ(1-42) HCl salt in hexafluoroisopropanol (HFIP), with brief sonication and vortexing. This solution of the Aβ(1-42) peptide in HFIP was stored at 4° C. @ 2 mM. When required, an aliquot of this stock solution was freeze-dried and dissolved in DMSO to 200 times the required final assay concentration (e.g. 2 mM for a final assay concentration of 10 μM). A 20 mM stock solution of each test compound was prepared in DMSO, and aliquots of these solutions were used to prepare further stock solutions of each test compound in DMSO, ranging in concentration from 3 μM up to 10 mM. These stock solutions were prepared for use as and when required and stored at −20° C. (maximum of 3 freeze-thaw cycles). The 20 mM parent stock solutions were stored frozen at −20° C. The daughter plate is sealed with silver seal and incubated at 37° C. for 24 and 48 hours for the Thioflavin T assay (LeVine and Scholten 1999). The activity of compounds in inhibiting 10 μM Aβ(1-42) aggregation was assessed by using a thioflavin-T fluorimetric assay. At each timepoint, a 50 or 100 μl aliquot is taken from each well of the daughter plate and dispensed into a black 96 well plate. Equal volume (50 or 100 μl) Thioflavin T [40 μM] (in Glycine buffer [50 mM]-NaOH pH 8.5) is added to each well. The plate was shaken and fluorescence was recorded using the top reader setting (10×1 msec), using excitation and emission filters of 440 (±15) and 485 (±10) nm, respectively. Fluorescence readings from equivalent experiments were averaged and % amyloid formation was determined as follows: Activity of Compounds in Inhibiting 10 μM Aβ(1-42) Aggregation Using Thioflavin-T Fluorimetric Assay

SH SY5Y cells = assay: Cell viability assay for amyloid toxicity using MTT reduction; assay type: cell-based; conditions: 10 μM Aβ(1-42), 24 h incubation, MTT reduction as measure of cell viability, read-out: IC50 protecting SH SY5Y cells from a toxic insult of 10 μM Aβ(1-42)
Method: Aβ(1-42) was prepared for amyloid aggregation and toxicity assays by dissolving Aβ(1-42) HCl salt in hexafluoroisopropanol (HFIP), with brief sonication and vortexing. This solution of the Aβ(1-42) peptide in HFIP was stored at 4° C. @ 2 mM. When required, an aliquot of this stock solution was freeze-dried and dissolved in DMSO to 200 times the required final assay concentration (e.g. 2 mM for a final assay concentration of 10 μM).
A 20 mM stock solution of each test compound was prepared in DMSO, and aliquots of these solutions were used to prepare further stock solutions of each test compound in DMSO, ranging in concentration from 3 μM up to 10 mM. These stock solutions were prepared for use as and when required and stored at −20° C. (maximum of 3 freeze-thaw cycles). The 20 mM parent stock solutions were stored frozen at −20° C.
The activity of compounds in protecting SH SY5Y cells from a toxic insult of 10 μM Aβ(1-42) was assessed by using inhibition of MIT reduction as a measure of cell viability. An aliquot (3 μl) of test compound [various concentrations] in DMSO is added to 294 μl of Opti-Mem (containing 2% FBS, 1% Pen/Strep, 1% L-Gln) {daughter plate}. The well is mixed thoroughly. Then an aliquot (3 μl) of Aβ(1-42) [2 mM] is added to the daughter plate wells and again mixed thoroughly. 50 μl is then aspirated and dispensed into wells containing 50 μl media+SH SY5Ycells (cells are also plated in Opti-Mem, at ˜30,000 cells/well/50 μl). Final concentrations of compound on cells range from [50 μM] to [˜15 nM] with a final concentration of Aβ(1-42) of [10 μM].
Cell plates are incubated for 24 h and then the MTT assay (Shearman, 1999). is performed. Briefly, 15 μl of MTT (3-(4,5-dimethylthiazol-2-yl)-2,5-diphenyl-tetrazolium bromide) dye (from Promega) added to each well and the plates incubated in 5% CO2 at 37° C. for 4 hours. 100 μl Stop/solubilsation solution (from Promega) was added to each well and the plates were left overnight in humidified box at room temperature. The plate was shaken and the absorbance was recorded at both 570 nm and 650 nm. ΔA values were calculated by subtracting absorbance at 650 nm from absorbance at 570 nm, to reduce non-specific background absorbance. ΔA values from equivalent experiments were averaged and % cell viability was determined as follows:
Live cell controls: 1% DMSO in Opti-Mem
Dead cell controls: 0.1% Triton X-100 added to cells
Activity of Compounds in Protecting SH SY5Y Cells from a Toxic Insult of 10 μM Aβ(1-42) Using Inhibition of MTT Reduction as a Measure of Cell Viability

T1 sequence (P05067 672-713 limits assumed): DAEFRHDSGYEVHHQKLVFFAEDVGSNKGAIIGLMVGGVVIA

Row | IC50 (Aβ(1-42)) | SMILES | IC50 (SH SY5Y cells; Homo sapiens, SH-SY5Y) | IC50 (SH SY5Y cells)
1 | 15 µM | Oc1cccc(Nc2ccc(Oc3cccc(N4CCOCC4)c3)cn2)c1 [Example 31] | – | –
2 | 11 µM | COc1cc(Nc2ccc(Oc3cccc(N4CCOCC4)c3)cn2)ccc1F [Example 27] | 8 µM | –

Second part, the compound before the results:

Row | SMILES | IC50 (Aβ(1-42)) | IC50 (SH SY5Y cells; Homo sapiens, SH-SY5Y) | IC50 (SH SY5Y cells)
3 | Oc1cccc(Nc2ccc(Nc3cccc(O)c3)nn2)c1 [RS-0406, reference compound] | – | – | 40 µM
4 | COc1cc(Nc2ccc(Oc3cccc(N(C)C)c3)cn2)ccc1F [Example 17, [5-(3-Dimethylaminophenoxy)-pyridin-2-yl]-(4-fluoro-3-methoxy-phenyl)amine] | 9 µM | 16 µM | –
5 | COc1cc(N(C)c2ccc(Oc3cccc(N(C)C)c3)cn2)ccc1F [Example 26, [5-(3-Dimethylaminophenoxy)-pyridin-2-yl]-(4-fluoro-3-methoxy-phenyl)methylamine] | – | 22 µM | –
6 | Oc1cccc(Nc2ccc(Oc3ccc(F)cc3)cn2)c1 [Example 1, 3-[5-(4-Fluorophenoxy)pyridin-2-ylamino]-phenol] | 5 µM | 16 µM | –
